Results as given in patent US20070219234A1, “Thienopyridine Derivatives” (priority 2004, published 2007).

Structure (SMILES) | melting point
Cl.Cl.NC(=O)c1sc2nccc(N3CCNCC3)c2c1N | 270 to 280 °C
NC(=O)c1sc2nccc(N3CC[C@@H]4CCCC[C@H]4C3)c2c1N (relative stereo) [Example 28, 3-amino-4-(trans-perhydroisoquinolin-2-yl)thieno[2,3-b]pyridine-2-carboxamide] | 285 to 288 °C
Cc1cc(N(C)C)c2c(N)c(C(N)=O)sc2n1 [Example 3, 3-amino-4-(dimethylamino)-6-methylthieno[2,3-b]pyridine-2-carboxamide] | 167 to 170 °C
CCCNc1ccnc2sc(C(N)=O)c(N)c12 [Example 4, 3-amino-4-(propylamino)thieno[2,3-b]pyridine-2-carboxamide] | 214 to 215 °C
CC(C)CNc1ccnc2sc(C(N)=O)c(N)c12 [Example 5, 3-amino-4-(isobutylamino)thieno[2,3-b]pyridine-2-carboxamide] | 117 to 119 °C
CC(C)(C)CNc1ccnc2sc(C(N)=O)c(N)c12 [Example 6, 3-amino-4-(neopentylamino)thieno[2,3-b]pyridine-2-carboxamide] | 238 to 240 °C
NC(=O)c1sc2nccc(NCc3ccccc3)c2c1N [Example 7, 3-amino-4-(benzylamino)thieno[2,3-b]pyridine-2-carboxamide] | 260 to 262 °C
NC(=O)c1sc2nccc(NCCCc3ccccc3)c2c1N [Example 9, 3-amino-4-[(3-phenylpropyl)amino]thieno[2,3-b]pyridine-2-carboxamide] | 232 to 234 °C
NC(=O)c1sc2nccc(N3CCCC3)c2c1N [Example 13, 3-amino-4-pyrrolidin-1-ylthieno[2,3-b]pyridine-2-carboxamide] | 275 to 283 °C
CC1CCN(c2ccnc3sc(C(N)=O)c(N)c23)CC1 [Example 15, 3-amino-4-(4-methylpiperidin-1-yl)thieno[2,3-b]pyridine-2-carboxamide] | 252 to 254 °C
NC(=O)c1sc2nccc(N3CCC(Cc4ccccc4)CC3)c2c1N [Example 18, 3-amino-4-(4-benzylpiperidin-1-yl)thieno[2,3-b]pyridine-2-carboxamide] | 220 to 221 °C
CC(=O)OC1CCN(c2ccnc3sc(C(N)=O)c(N)c23)CC1 [Example 20, 3-amino-4-(4-acetoxypiperidin-1-yl)thieno[2,3-b]pyridine-2-carboxamide] | 231 to 235 °C
NC(=O)c1sc2nccc(N3CC=C(c4ccccc4)CC3)c2c1N [Example 21, 3-amino-4-(4-phenyl-3,6-dihydropyridin-1(2H)-yl)thieno[2,3-b]pyridine-2-carboxamide] | 235 °C (dec.)
NC(=O)c1sc2nccc(N3CCOCC3)c2c1N [Example 22, 3-amino-4-morpholin-4-ylthieno[2,3-b]pyridine-2-carboxamide] | 232 to 234 °C
NC(=O)c1sc2nccc(N3CCCCCC3)c2c1N [Example 25, 3-amino-4-azepan-1-ylthieno[2,3-b]pyridine-2-carboxamide] | 219 to 221 °C
NC(=O)c1sc2nccc(N3CCc4ccccc4C3)c2c1N [Example 27, 3-amino-4-(3,4-dihydroisoquinoline-2(1H)-yl)thieno[2,3-b]pyridine-2-carboxamide] | 244 to 245 °C
NC(=O)c1sc2nccc(N3CCC(c4ccccc4)CC3)c2c1N [Example 31, 3-amino-4-(4-phenylpiperidin-1-yl)thieno[2,3-b]pyridine-2-carboxamide] | 226 to 233 °C
NC(=O)c1sc2nccc(N3CC[S+]([O-])CC3)c2c1N [Example 32, 3-amino-4-(1-oxothiomorpholine-4-yl)thieno[2,3-b]pyridine-2-carboxamide] | 165 to 172 °C
NC(=O)c1sc2nccc(N3CCCSCC3)c2c1N [Example 33, 3-amino-4-(1,4-thiazepan-4-yl)thieno[2,3-b]pyridine-2-carboxamide] | 171 to 174 °C
NC(=O)c1sc2nccc(N3CCCC(c4ccccc4)C3)c2c1N (centres unmarked) [Example 35, 3-amino-4-(3-phenylpiperidin-1-yl)thieno[2,3-b]pyridine-2-carboxamide] | 267 to 269 °C
NC(=O)c1sc2nccc(N3CCCC(O)C3)c2c1N (centres unmarked) [Example 36, 3-amino-4-(3-hydroxypiperidin-1-yl)thieno[2,3-b]pyridine-2-carboxamide] | 208 to 211 °C
CC(C)(C)OC(=O)N1CCN(c2ccnc3sc(C(N)=O)c(N)c23)CC1 [Example 37, tert-butyl 4-[3-amino-2-(aminocarbonyl)thieno[2,3-b]pyridin-4-yl]piperazine-1-carboxylate] | 198 to 203 °C
NC(=O)c1sc2nccc(N3CCN(Cc4ccccc4)CC3)c2c1N [Example 43, 3-amino-4-(4-benzylpiperazin-1-yl)thieno[2,3-b]pyridine-2-carboxamide] | 241 to 242 °C
NC(=O)c1sc2nccc(N3CCN(c4ncccn4)CC3)c2c1N [Example 44, 3-amino-4-(4-pyrimidin-2-ylpiperazin-1-yl)thieno[2,3-b]pyridine-2-carboxamide] | 280 °C (dec.)
NC(=O)c1sc2nccc(N3CCN(c4ccc(F)cc4)CC3)c2c1N [Example 47, 3-amino-4-[4-(4-fluorophenyl)piperazin-1-yl]thieno[2,3-b]pyridine-2-carboxamide] | 275 °C (dec.)
NC(=O)c1sc2nccc(N3CCN(C(c4ccccc4)c4ccccc4)CC3)c2c1N [Example 48, 3-amino-4-(4-benzhydrylpiperazin-1-yl)thieno[2,3-b]pyridine-2-carboxamide] | 225 to 233 °C
NC(=O)c1sc2nccc(N3CCN(c4ccccc4Cl)CC3)c2c1N [Example 54, 3-amino-4-[4-(2-chlorophenyl)piperazin-1-yl]thieno[2,3-b]pyridine-2-carboxamide] | 294 to 298 °C (dec.)

Next, values leading:

melting point | Structure (SMILES)
> 295 °C | Cl.Cl.NC(=O)c1sc2nccc(N3CCCNCC3)c2c1N
127 to 129 °C | CCN(CC)c1ccnc2sc(C(N)=O)c(N)c12 [Example 2, 3-amino-4-(diethylamino)thieno[2,3-b]pyridine-2-carboxamide]
244 to 247 °C | NC(=O)c1sc2nccc(NC3CCCCC3)c2c1N [Example 11, 3-amino-4-(cyclohexylamino)thieno[2,3-b]pyridine-2-carboxamide]
206 to 208 °C | NC(=O)c1sc2nccc(NC3CCCCCC3)c2c1N [Example 12, 3-amino-4-(cycloheptylamino)thieno[2,3-b]pyridine-2-carboxamide]
239 to 241 °C | NC(=O)c1sc2nccc(N3CCC(O)CC3)c2c1N [Example 19, 3-amino-4-(4-hydroxypiperidin-1-yl)thieno[2,3-b]pyridine-2-carboxamide]
242 to 244 °C | C[C@@H]1CN(c2ccnc3sc(C(N)=O)c(N)c23)C[C@H](C)O1 [Example 23, 3-amino-4-(cis-2,6-dimethylmorpholin-4-yl)thieno[2,3-b]pyridine-2-carboxamide]
222 to 224 °C | NC(=O)c1sc2nccc(N3CCCCCCC3)c2c1N [Example 26, 3-amino-4-azocan-1-ylthieno[2,3-b]pyridine-2-carboxamide]
175 to 176 °C | NC(=O)c1sc2nccc(N3CCCOCC3)c2c1N [Example 30, 3-amino-4-(1,4-oxazepan-4-yl)thieno[2,3-b]pyridine-2-carboxamide]
111 to 119 °C | NC(=O)c1sc2nccc(N3CCC[S+]([O-])CC3)c2c1N (centres unmarked) [Example 34, 3-amino-4-(1-oxo-1,4-thiazepan-4-yl)thieno[2,3-b]pyridine-2-carboxamide]
260 to 263 °C | CN1CCN(c2ccnc3sc(C(N)=O)c(N)c23)CC1 [Example 39, 3-amino-4-(4-methylpiperazin-1-yl)thieno[2,3-b]pyridine-2-carboxamide]
218 to 219 °C | CCN1CCN(c2ccnc3sc(C(N)=O)c(N)c23)CC1 [Example 40, 3-amino-4-(4-ethylpiperazin-1-yl)thieno[2,3-b]pyridine-2-carboxamide]
240 to 243 °C | CC(C)N1CCN(c2ccnc3sc(C(N)=O)c(N)c23)CC1 [Example 41, 3-amino-4-(4-isopropylpiperazin-1-yl)thieno[2,3-b]pyridine-2-carboxamide]
250 to 252 °C | NC(=O)c1sc2nccc(N3CCN(c4ccccc4)CC3)c2c1N [Example 42, 3-amino-4-(4-phenylpiperazin-1-yl)thieno[2,3-b]pyridine-2-carboxamide]
266 to 270 °C | NC(=O)c1sc2nccc(N3CCN(c4ccccn4)CC3)c2c1N [Example 45, 3-amino-4-(4-pyridin-2-ylpiperazin-1-yl)thieno[2,3-b]pyridine-2-carboxamide]
270 °C (dec.) | Cc1ccc(N2CCN(c3ccnc4sc(C(N)=O)c(N)c34)CC2)cc1 [Example 46, 3-amino-4-[4-(4-methylphenyl)piperazin-1-yl]thieno[2,3-b]pyridine-2-carboxamide]
275 °C (dec.) | COc1ccc(N2CCN(c3ccnc4sc(C(N)=O)c(N)c34)CC2)cc1 [Example 49, 3-amino-4-[4-(4-methoxyphenyl)piperazin-1-yl]thieno[2,3-b]pyridine-2-carboxamide]
> 300 °C | NC(=O)c1sc2nccc(N3CCN(C(=O)c4ccccc4)CC3)c2c1N [Example 51, 3-amino-4-(4-benzoylpiperazin-1-yl)thieno[2,3-b]pyridine-2-carboxamide]
297 °C (dec.) | NC(=O)c1sc2nccc(N3CCN(c4ccc(Cl)cc4)CC3)c2c1N [Example 52, 3-amino-4-[4-(4-chlorophenyl)piperazin-1-yl]thieno[2,3-b]pyridine-2-carboxamide]
294 °C (dec.) | COc1ccccc1N1CCN(c2ccnc3sc(C(N)=O)c(N)c23)CC1 [Example 53, 3-amino-4-[4-(2-methoxyphenyl)piperazin-1-yl]thieno[2,3-b]pyridine-2-carboxamide]
177 to 178 °C | CC(C)(C)OC(=O)N1CCCN(c2ccnc3sc(C(N)=O)c(N)c23)CC1 [Example 55, tert-butyl 4-[3-amino-2-(aminocarbonyl)thieno[2,3-b]pyridin-4-yl]-1,4-diazepane-1-carboxylate]
